Test results taken from the CheMixHub viscosity set.
Values joined by “and” are separate entries in the source; they are usually repeats but may differ in a detail not shown here. Identical values can stand only once.

Assay: xn = mol fraction of the nth substance listed

Cc1ncc[nH]1 + O
viscosity [mPa·s], 100 kPa
Settings | x1 = 0.0238 | x1 = 0.0373 | x1 = 0.052 | x1 = 0.0682 | x1 = 0.086
298.15 K | 1.151 | 1.312 | 1.494 | 1.718 | 1.971
303.15 K | 1.02 | 1.16 | 1.315 | 1.498 | 1.707
313.15 K | 0.838 | 0.933 | 1.07 | 1.214 | 1.379
323.15 K | 0.696 | 0.767 | 0.87 | 0.978 | 1.1

F.[F-].[Na+] + O
viscosity [mPa·s], 100 kPa
Settings | x1 = 0.003 | x1 = 0.006 | x1 = 0.009
298.15 K | 0.939 | 0.9963 | 1.068
323.15 K | 0.578 | 0.61 | 0.657

OCC(F)(F)F + O
Settings | viscosity [mPa·s]
298 K, 101.3 kPa, x1 = 0.026 | 1.152
298 K, 101.3 kPa, x1 = 0.0503 | 1.358
298 K, 101.3 kPa, x1 = 0.075 | 1.528
298 K, 101.3 kPa, x1 = 0.0984 | 1.634
298 K, 101.3 kPa, x1 = 0.1984 | 1.882
298 K, 101.3 kPa, x1 = 0.3016 | 1.876
298 K, 101.3 kPa, x1 = 0.4012 | 1.819
298 K, 101.3 kPa, x1 = 0.5015 | 1.757
298 K, 101.3 kPa, x1 = 0.5993 | 1.713
298 K, 101.3 kPa, x1 = 0.6501 | 1.656
298 K, 101.3 kPa, x1 = 0.8029 | 1.651
298 K, 101.3 kPa, x1 = 0.9024 | 1.673
298.15 K, 100 kPa, x1 = 0.1022 | 1.608
298.15 K, 100 kPa, x1 = 0.2084 | 1.828
298.15 K, 100 kPa, x1 = 0.3227 | 1.802
298.15 K, 100 kPa, x1 = 0.4087 | 1.743
298.15 K, 100 kPa, x1 = 0.5727 | 1.665
298.15 K, 100 kPa, x1 = 0.7111 | 1.621
298.15 K, 100 kPa, x1 = 0.9104 | 1.64
298.15 K, 101 kPa, x1 = 0.0196 | 1.061
298.15 K, 101 kPa, x1 = 0.04313 | 1.271
298.15 K, 101 kPa, x1 = 0.07168 | 1.446
298.15 K, 101 kPa, x1 = 0.1072 | 1.642
298.15 K, 101 kPa, x1 = 0.1525 | 1.773
298.15 K, 101 kPa, x1 = 0.2128 | 1.852
298.15 K, 101 kPa, x1 = 0.296 | 1.865
298.15 K, 101 kPa, x1 = 0.4193 | 1.782
298.15 K, 101 kPa, x1 = 0.6192 | 1.667
303 K, 101.3 kPa, x1 = 0.026 | 0.999
303 K, 101.3 kPa, x1 = 0.0503 | 1.163
303 K, 101.3 kPa, x1 = 0.075 | 1.312
303 K, 101.3 kPa, x1 = 0.0984 | 1.395
303 K, 101.3 kPa, x1 = 0.1984 | 1.588
303 K, 101.3 kPa, x1 = 0.3016 | 1.609
303 K, 101.3 kPa, x1 = 0.4012 | 1.566
303 K, 101.3 kPa, x1 = 0.5015 | 1.523
303 K, 101.3 kPa, x1 = 0.5993 | 1.492
303 K, 101.3 kPa, x1 = 0.6501 | 1.45
303 K, 101.3 kPa, x1 = 0.8029 | 1.444
303 K, 101.3 kPa, x1 = 0.9024 | 1.468
308 K, 101.3 kPa, x1 = 0.026 | 0.887
308 K, 101.3 kPa, x1 = 0.0503 | 1.017
308 K, 101.3 kPa, x1 = 0.075 | 1.138
308 K, 101.3 kPa, x1 = 0.0984 | 1.214
308 K, 101.3 kPa, x1 = 0.1984 | 1.398
308 K, 101.3 kPa, x1 = 0.3016 | 1.406
308 K, 101.3 kPa, x1 = 0.4012 | 1.375
308 K, 101.3 kPa, x1 = 0.5015 | 1.338
308 K, 101.3 kPa, x1 = 0.5993 | 1.305
308 K, 101.3 kPa, x1 = 0.6501 | 1.284
308 K, 101.3 kPa, x1 = 0.8029 | 1.278
308 K, 101.3 kPa, x1 = 0.9024 | 1.296
313 K, 101.3 kPa, x1 = 0.026 | 0.791
313 K, 101.3 kPa, x1 = 0.0503 | 0.899
313 K, 101.3 kPa, x1 = 0.075 | 1.002
313 K, 101.3 kPa, x1 = 0.0984 | 1.065
313 K, 101.3 kPa, x1 = 0.1984 | 1.223
313 K, 101.3 kPa, x1 = 0.3016 | 1.235
313 K, 101.3 kPa, x1 = 0.4012 | 1.211
313 K, 101.3 kPa, x1 = 0.5015 | 1.179
313 K, 101.3 kPa, x1 = 0.5993 | 1.159
313 K, 101.3 kPa, x1 = 0.6501 | 1.145
313 K, 101.3 kPa, x1 = 0.8029 | 1.136
313 K, 101.3 kPa, x1 = 0.9024 | 1.152
323.15 K, 100 kPa, x1 = 0.1022 | 0.85
323.15 K, 100 kPa, x1 = 0.2084 | 0.944
323.15 K, 100 kPa, x1 = 0.3227 | 0.949
323.15 K, 100 kPa, x1 = 0.4087 | 0.94
323.15 K, 100 kPa, x1 = 0.5727 | 0.911
323.15 K, 100 kPa, x1 = 0.7111 | 0.912
323.15 K, 100 kPa, x1 = 0.9104 | 0.935

[Br-].[NH4+] + O
298.15 K, 101 kPa
Settings | viscosity [mPa·s]
x1 = 0.0089 | 0.8738
x1 = 0.0177 | 0.8563
x1 = 0.0348 | 0.8265

[Cl-].[K+] + O
Settings | viscosity
293.15 K, 101 kPa, x1 = 0.005905 | 0.9971 mPa·s and 0.9972 mPa·s
293.15 K, 101 kPa, x1 = 0.009253 | 0.9943 mPa·s
293.15 K, 101 kPa, x1 = 0.01811 | 0.9892 mPa·s and 0.989 mPa·s
293.15 K, 101 kPa, x1 = 0.02711 | 0.9882 mPa·s and 0.9881 mPa·s
293.15 K, 101 kPa, x1 = 0.03656 | 0.9913 mPa·s
293.15 K, 101 kPa, x1 = 0.0468 | 0.9995 mPa·s and 0.9994 mPa·s
293.15 K, 101 kPa, x1 = 0.07583 | 1.047 mPa·s
297.65 K, 100 kPa, x1 = 0.02628 | 0.905 mPa·s and 0.904 mPa·s
298.15 K, 100 kPa, x1 = 0.05933 | 0.932 mPa·s and 0.933 mPa·s
298.15 K, 101 kPa, x1 = 0.005905 | 0.8895 mPa·s
298.15 K, 101 kPa, x1 = 0.009253 | 0.8885 mPa·s and 0.8886 mPa·s
298.15 K, 101 kPa, x1 = 0.01811 | 0.8883 mPa·s and 0.8882 mPa·s
298.15 K, 101 kPa, x1 = 0.02711 | 0.8911 mPa·s and 0.891 mPa·s
298.15 K, 101 kPa, x1 = 0.0468 | 0.908 mPa·s and 0.9079 mPa·s
298.15 K, 101 kPa, x1 = 0.05806 | 0.9238 mPa·s
298.15 K, 101 kPa, x1 = 0.06612 | 0.9378 mPa·s and 0.9377 mPa·s
298.15 K, 101 kPa, x1 = 0.07583 | 0.9577 mPa·s and 0.9576 mPa·s
298.15 K, 101.3 kPa, x1 = 0.00072 | 0.8908 mPa·s
298.15 K, 101.3 kPa, x1 = 0.00162 | 0.8906 mPa·s
298.15 K, 101.3 kPa, x1 = 0.002874 | 0.8911 mPa·s
298.15 K, 101.3 kPa, x1 = 0.004484 | 0.8895 mPa·s
298.15 K, 101.3 kPa, x1 = 0.007154 | 0.8891 mPa·s
298.15 K, 101.3 kPa, x1 = 0.01245 | 0.8885 mPa·s
298.15 K, 101.3 kPa, x1 = 0.0177 | 0.8882 mPa·s
299.15 K, 100 kPa, x1 = 0.07333 | 0.95 mPa·s and 0.949 mPa·s
299.65 K, 100 kPa, x1 = 0.04316 | 0.888 mPa·s
300.15 K, 100 kPa, x1 = 0.008975 | 0.86 mPa·s and 0.858 mPa·s
303.15 K, 101 kPa, x1 = 0.005905 | 0.7997 mPa·s
303.15 K, 101 kPa, x1 = 0.009253 | 0.8005 mPa·s and 0.8003 mPa·s
303.15 K, 101 kPa, x1 = 0.01811 | 0.8034 mPa·s and 0.8032 mPa·s
303.15 K, 101 kPa, x1 = 0.03656 | 0.8174 mPa·s
303.15 K, 101 kPa, x1 = 0.0468 | 0.8296 mPa·s and 0.8294 mPa·s
303.15 K, 101 kPa, x1 = 0.05806 | 0.8467 mPa·s and 0.8466 mPa·s
303.15 K, 101 kPa, x1 = 0.06612 | 0.8611 mPa·s and 0.8612 mPa·s
303.15 K, 101 kPa, x1 = 0.07583 | 0.8802 mPa·s and 0.8799 mPa·s
307.15 K, 100 kPa, x1 = 0.05933 | 0.798 mPa·s and 0.799 mPa·s
308.15 K, 100 kPa, x1 = 0.05933 | 0.793 mPa·s and 0.794 mPa·s
308.15 K, 101.3 kPa, x1 = 0.00072 | 0.7204 mPa·s
308.15 K, 101.3 kPa, x1 = 0.00162 | 0.721 mPa·s
308.15 K, 101.3 kPa, x1 = 0.007154 | 0.7241 mPa·s
308.15 K, 101.3 kPa, x1 = 0.01245 | 0.7273 mPa·s
308.15 K, 101.3 kPa, x1 = 0.0177 | 0.7305 mPa·s
308.65 K, 100 kPa, x1 = 0.02628 | 0.738 mPa·s and 0.737 mPa·s
308.65 K, 100 kPa, x1 = 0.04316 | 0.761 mPa·s and 0.759 mPa·s
309.15 K, 100 kPa, x1 = 0.008975 | 0.717 mPa·s
309.15 K, 100 kPa, x1 = 0.07333 | 0.805 mPa·s
313.15 K, 101 kPa, x1 = 0.005905 | 0.6585 mPa·s
313.15 K, 101 kPa, x1 = 0.009253 | 0.661 mPa·s
313.15 K, 101 kPa, x1 = 0.01811 | 0.6685 mPa·s and 0.6683 mPa·s
313.15 K, 101 kPa, x1 = 0.02711 | 0.6774 mPa·s
313.15 K, 101 kPa, x1 = 0.03656 | 0.6885 mPa·s
313.15 K, 101 kPa, x1 = 0.0468 | 0.7028 mPa·s
313.15 K, 101 kPa, x1 = 0.05806 | 0.7211 mPa·s
313.15 K, 101 kPa, x1 = 0.06612 | 0.7359 mPa·s
313.15 K, 101 kPa, x1 = 0.07583 | 0.7551 mPa·s
316.15 K, 100 kPa, x1 = 0.008975 | 0.629 mPa·s and 0.63 mPa·s
317.65 K, 100 kPa, x1 = 0.02628 | 0.631 mPa·s
317.65 K, 100 kPa, x1 = 0.05933 | 0.686 mPa·s
318.15 K, 100 kPa, x1 = 0.07333 | 0.705 mPa·s and 0.706 mPa·s
318.15 K, 101.3 kPa, x1 = 0.00072 | 0.5972 mPa·s
318.15 K, 101.3 kPa, x1 = 0.00162 | 0.5983 mPa·s
318.15 K, 101.3 kPa, x1 = 0.002874 | 0.6 mPa·s
318.15 K, 101.3 kPa, x1 = 0.004484 | 0.601 mPa·s
318.15 K, 101.3 kPa, x1 = 0.007154 | 0.6037 mPa·s
319.15 K, 100 kPa, x1 = 0.04316 | 0.643 mPa·s and 0.64 mPa·s
323.15 K, 101 kPa, x1 = 0.005905 | 0.554 mPa·s
323.15 K, 101 kPa, x1 = 0.01811 | 0.5673 mPa·s
323.15 K, 101 kPa, x1 = 0.02711 | 0.5782 mPa·s
323.15 K, 101 kPa, x1 = 0.0468 | 0.6058 mPa·s
323.15 K, 101 kPa, x1 = 0.05806 | 0.6242 mPa·s
323.15 K, 101 kPa, x1 = 0.06612 | 0.6389 mPa·s
323.15 K, 101 kPa, x1 = 0.07583 | 0.6575 mPa·s
